Assay results: ChEMBL document CHEMBL1201862, “PubChem BioAssay data set” (2004)
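Five compound concentrations were applied to cells in 96-well plates for 48 hours; endpoints were derived by simple linear interpolation of the resulting dose-response curve. GI50 marks 50% less growth.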 Calls of active or inactive are those of the source. No stated cut-off is given here; in the data, active = GI50 up to about 1.1 µM and inactive = higher.

How the values were obtained:
Assay in all cases: NCI-60 cell line screen, 48 h
T47D = system: T47D
OVCAR-8 = system: OVCAR-8
MCF7 = system: MCF7
SK-OV-3 = system: SK-OV-3
EKVX = system: EKVX
CCRF-CEM = system: CCRF-CEM
NCI-H460 = system: NCI-H460
MDA-MB-435 = system: MDA-MB-435
HCT-116 = system: HCT-116
MDA-MB-231 = system: MDA-MB-231
SNB-75 = system: SNB-75
UACC-62 = system: UACC-62
UACC-257 = system: UACC-257
SK-MEL-28 = system: SK-MEL-28
A498 = system: A498
HT-29 = system: HT-29
NCI-H23 = system: NCI-H23
U-251 = system: U-251
SF-539 = system: SF-539
NCI-H226 = system: NCI-H226

| Compound | GI50 (T47D) | GI50 (OVCAR-8) | GI50 (MCF7) | GI50 (SK-OV-3) | GI50 (EKVX) | GI50 (CCRF-CEM) | GI50 (NCI-H460) | GI50 (MDA-MB-435) | GI50 (HCT-116) | GI50 (MDA-MB-231) | GI50 (SNB-75) | GI50 (UACC-62) | GI50 (UACC-257) | GI50 (SK-MEL-28) | GI50 (A498) | GI50 (HT-29) | GI50 (NCI-H23) | GI50 (U-251) | GI50 (SF-539) | GI50 (NCI-H226) |
| --- | --- | --- | --- | --- | --- | --- | --- | --- | --- | --- | --- | --- | --- | --- | --- | --- | --- | --- | --- | --- |
| CN(C)c1ccc(/C=C2\N=C(c3ccccc3)N(c3nc4ccc(Sc5ccccc5)cc4[nH]3)C2=O)cc1 | 44 µM (inactive) | 43 µM (inactive) | 30 µM (inactive) | 13.7 µM (inactive) | 40.7 µM (inactive) | 16.7 µM (inactive) | 30 µM (inactive) | 16.7 µM (inactive) | 36.3 µM (inactive) | 49.1 µM (inactive) | 53.2 µM (inactive) | 22.5 µM (inactive) | 24.3 µM (inactive) | 57.1 µM (inactive) | 37.6 µM (inactive) | 32.4 µM (inactive) | 47.1 µM (inactive) | 47.9 µM (inactive) | – | – |
| CCC1(O)CC(OC2CC(N(C)C)C(OC3CC(O)C(OC4OC(C)C(=O)C=C4N)C(C)O3)C(C)O2)c2c(cc3c(c2O)C(=O)c2c(O)cccc2C3=O)C1C(=O)OC (centres undefined) | 0.0292 µM (active) | 0.00415 µM (active) | 0.01 µM (active) | 0.0518 µM (active) | 0.0224 µM (active) | 0.00169 µM (active) | < 0.001 µM (active) | 0.00583 µM (active) | < 0.001 µM (active) | 0.29 µM (active) | 0.0402 µM (active) | 0.0121 µM (active) | 0.0211 µM (active) | 0.0272 µM (active) | – | 0.00889 µM (active) | 0.104 µM (active) | 0.00385 µM (active) | 0.0501 µM (active) | 0.115 µM (active) |
| C=C(C)C1CC=C(C)C(=O)C1 (centres undefined) [CARVONE] | > 100 µM (inactive) | > 100 µM (inactive) | > 100 µM (inactive) | – | > 100 µM (inactive) | > 100 µM (inactive) | > 100 µM (inactive) | > 100 µM (inactive) | > 100 µM (inactive) | > 100 µM (inactive) | > 100 µM (inactive) | – | > 100 µM (inactive) | > 100 µM (inactive) | – | > 100 µM (inactive) | > 100 µM (inactive) | > 100 µM (inactive) | > 100 µM (inactive) | > 100 µM (inactive) |
| C[C@@H](c1ccccc1)N1CO[C@@]2(C#Cc3ccc4c(c3)OCO4)CCC[C@@H]12 | 16.4 µM (inactive) | 14 µM (inactive) | > 100 µM (inactive) | 17.4 µM (inactive) | 20.3 µM (inactive) | 19.8 µM (inactive) | 13.3 µM (inactive) | 13.7 µM (inactive) | 12 µM (inactive) | 13.3 µM (inactive) | 13.9 µM (inactive) | > 100 µM (inactive) | 17.5 µM (inactive) | 17.5 µM (inactive) | – | 16.6 µM (inactive) | 14.7 µM (inactive) | 13.6 µM (inactive) | – | 20.6 µM (inactive) |
| COc1cc(C2SCC(=O)N2c2ccc(NC(=O)c3ccc(N4C(=O)CSC4c4cc(OC)c(OC)c(OC)c4)cc3)cc2)cc(OC)c1OC (centres undefined) | 19.8 µM (inactive) | 40.3 µM (inactive) | 43.3 µM (inactive) | > 100 µM (inactive) | 57 µM (inactive) | 45.5 µM (inactive) | > 100 µM (inactive) | 20.6 µM (inactive) | 35.1 µM (inactive) | > 100 µM (inactive) | 22.2 µM (inactive) | 24.9 µM (inactive) | 60.5 µM (inactive) | 42.5 µM (inactive) | – | 93.1 µM (inactive) | 49.4 µM (inactive) | 49.3 µM (inactive) | 42.7 µM (inactive) | – |
| N#CCCN(CCCN(C(=O)Nc1ccccc1)c1ccccc1)C(=O)Nc1ccccc1 | > 100 µM (inactive) | > 100 µM (inactive) | 84.5 µM (inactive) | > 100 µM (inactive) | > 100 µM (inactive) | 33.7 µM (inactive) | 77.4 µM (inactive) | > 100 µM (inactive) | > 100 µM (inactive) | > 100 µM (inactive) | 44.8 µM (inactive) | > 100 µM (inactive) | > 100 µM (inactive) | > 100 µM (inactive) | – | > 100 µM (inactive) | 61.7 µM (inactive) | > 100 µM (inactive) | > 100 µM (inactive) | > 100 µM (inactive) |
